This note sets out measurements from US8937065B2, “Compositions and methods for modulating a kinase” (Clevexel Pharma, priority 2011, dated 2015).

One series deals with Molt-4 cells. Description: Proliferation of Molt-4 cells (Cell Titer-Glo). As to conditions: Homo sapiens, T cells, outcome-based, read-out: IC50 Proliferation Molt-4 cells (ALL). For orientation: In ATP-based viability assays light output follows the ATP content of the culture.
Another series has as its target T1, JAK3 (Homo sapiens, UniProt P52333).
T1 construct: purchased Invitrogen, Madison, Wis
T1 sequence (P52333 1-1124): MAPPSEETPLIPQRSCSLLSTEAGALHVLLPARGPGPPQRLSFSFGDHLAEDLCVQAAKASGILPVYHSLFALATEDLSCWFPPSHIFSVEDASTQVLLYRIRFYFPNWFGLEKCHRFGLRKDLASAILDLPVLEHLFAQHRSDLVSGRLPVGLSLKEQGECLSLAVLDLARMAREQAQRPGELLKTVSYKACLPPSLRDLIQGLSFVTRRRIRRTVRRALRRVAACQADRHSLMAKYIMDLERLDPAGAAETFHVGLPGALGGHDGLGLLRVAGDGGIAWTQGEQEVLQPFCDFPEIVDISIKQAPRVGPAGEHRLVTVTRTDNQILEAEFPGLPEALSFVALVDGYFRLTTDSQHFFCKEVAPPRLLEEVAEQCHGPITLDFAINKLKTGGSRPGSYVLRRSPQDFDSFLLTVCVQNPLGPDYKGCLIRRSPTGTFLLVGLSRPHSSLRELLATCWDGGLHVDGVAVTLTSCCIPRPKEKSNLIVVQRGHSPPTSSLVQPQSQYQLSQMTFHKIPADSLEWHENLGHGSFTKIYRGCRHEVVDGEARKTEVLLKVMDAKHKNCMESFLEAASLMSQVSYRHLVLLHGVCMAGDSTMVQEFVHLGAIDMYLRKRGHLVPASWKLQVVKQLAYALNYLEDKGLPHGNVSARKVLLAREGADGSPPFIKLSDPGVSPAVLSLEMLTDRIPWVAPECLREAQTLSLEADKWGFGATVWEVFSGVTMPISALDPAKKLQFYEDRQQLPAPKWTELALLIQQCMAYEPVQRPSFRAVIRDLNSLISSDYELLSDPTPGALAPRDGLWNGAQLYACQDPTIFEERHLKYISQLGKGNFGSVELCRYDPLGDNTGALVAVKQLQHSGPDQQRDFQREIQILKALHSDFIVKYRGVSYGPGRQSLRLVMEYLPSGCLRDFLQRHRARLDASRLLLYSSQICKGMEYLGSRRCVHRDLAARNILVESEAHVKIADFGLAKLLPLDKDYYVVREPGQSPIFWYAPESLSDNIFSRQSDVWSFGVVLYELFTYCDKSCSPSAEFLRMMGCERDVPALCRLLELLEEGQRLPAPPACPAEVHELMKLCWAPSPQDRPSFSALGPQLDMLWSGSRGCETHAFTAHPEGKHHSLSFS
Description: JAK3 enzymatic activity assay (Z'-LYTE Biochemical Kinase Assay, 2 hr preincubation at 4° C.). As to conditions: cell free, 1% DMSO, read-out: JAK3 activity cell free (2 hr preincubation at (4° C.) Kj). Here is the method:
The assays were performed according to manufacturer's protocols, except that prior to the kinase reaction they were pre-incubated for 2 hours at 4° C., in order to be able to assay for time-dependent inhibition.
In addition to the compound, each 10 μL JAK3 kinase reaction contained 0.43-1.89 ng JAK3 and 2 μM peptide substrate in 50 mM HEPES (pH 7.5), 0.01% BRIJ-35, 10 mM MgCl2 and 1 mM EGTA. The kinase reaction was allowed to proceed for 1 hour.

A further series concerns IL-2 stimulated PBMCs. Briefly: IL-2-stimulated proliferation of PBMC (Cell Titer Glo). As to conditions: read-out: IC50 T cells outcome-based: IL-2 stimulated PBMCs Proliferation. Here is the method:
Fresh blood collection and PBMC separation assay • 1. Three donors were used to collect enough blood samples. The fresh blood was stored in Heparin Sodium tubes. • 2. Transferred blood to 50 ml centrifugal tube. 15 ml of blood was put into a tube. • 3. Added same volume of DPBS into the blood tube and mixed gently. • 4. Slowly underlayed 10 ml Ficoll using pipette (being careful to not disturb the 2 phases). • 5. Centrifuged 30 min at 800 g at RT without break. • 6. Aspirated the buffy coat (containing PBMC) at the interface between serum and ficoll. The PBMC was washed by enough DPBS and centrifuged at 900 g to remove the Ficoll. • 7. Added RPMI-1640 Medium to the collected PBMC and counted the concentration of PBMC. At least 1 million of PBMC were separated from 1 ml of blood.
IL-2-induced proliferation of PBMC by Cell Titer Glow assay • 1. Counted the PBMC numbers and adjusted cell density to 1.0*10^6/ml. • 2. Seeded cells in complete RPMI in the presence of PHA (phytohemagglutinin, 10 ug/ml). • 3. Added 100 μl of cell suspension to the 96-well plate (white) according to the planned plate map. So there were 1.0*10^5 cells in each well. Cultured for 3 days. • 4. Replaced media with complete RPMI plus IL-2, 100 units/ml and compounds, e.g compounds were added only at IL-2 incubation step. Cultured for 2 days. • 5. […] Recorded luminescence with Flexstation 3 and export the data.

The next series can be described thus: Solubility, turbidity. In kind it is physicochemical. The conditions noted are these: kinetic from dmso stock.

≈ marks a conversion by molar mass, not a printed value.

For orientation: solubility means the dissolved amount per volume that the medium holds. Read a high solubility as much dissolved substance. For the molecule `O=C(CN1CCOCC1)Nc1cccc(-c2nc(-c3c[nH]c(C(=O)N4CCCC4)c3)cs2)c1` [7A, 2-morpholino-N-(3-(4-(5-(pyrrolidine-1-carbonyl)-1H-pyrrol-3-yl)thiazol-2-yl)phenyl)acetamide], the IC50 in the series on Molt-4 cells was 35 µM; in the series on IL-2 stimulated PBMCs, 3 to 6 µM. Further, at JAK3, the Ki was in the range of 1.1 to 10 µM. Moreover, the solubility in the series “Solubility, turbidity” was 60 to 80 µM (≈ 27.9 to 37.2 µg/mL).
